Measurements as given in paper PMC12281485, “High-Throughput Screening of Potent Drug-like Molecules Targeting 17β-HSD10 for the Treatment of Alzheimer’s Disease and Cancer” (ACS Chemical Biology, 2025).
Like-named read-outs stand apart in the source and are kept apart here.

Legend:
17β-HSD10 [1] = target: T1, 17β-HSD10 (Homo sapiens, UniProt Q99714); assay: 17β-HSD10 enzyme inhibition dose-response assay (acetoacetyl-CoA/NADH, absorbance 340 nm); type: biochemical
T1 construct: Recombinant 17β-HSD10 was expressed and purified as previously described in Aitken et al; made in house
T1 sequence (Q99714 1-261): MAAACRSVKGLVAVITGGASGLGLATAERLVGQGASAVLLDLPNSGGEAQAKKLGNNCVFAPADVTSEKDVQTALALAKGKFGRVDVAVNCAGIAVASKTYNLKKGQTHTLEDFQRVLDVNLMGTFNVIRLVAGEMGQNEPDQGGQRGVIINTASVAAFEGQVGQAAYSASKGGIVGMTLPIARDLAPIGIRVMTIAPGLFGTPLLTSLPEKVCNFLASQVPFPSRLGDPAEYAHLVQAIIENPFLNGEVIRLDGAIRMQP
Method: Recombinant 17β-HSD10 was expressed and purified as previously described in Aitken et al.
17β-HSD10 screening was carried out as described in Aitken et al. with the exception that experiments were also conducted in clear-bottom 1536-well low-volume microplates (Corning) with a final assay volume of 20 μL. For primary screening, an endpoint assay format was adopted, in which an Echo acoustic liquid dispenser (Labcyte) was used to transfer 20 nL of either DMSO control […] or test compounds (10 μM) to the assay plate. 10 μL of the 17β-HSD10 enzyme in an assay buffer (2.5 nM) was then added to the plates using the Preddator liquid handling robot (Redd and Whyte), and plates were incubated at RT for 15 min. 10 μL of the substrate mixture (100 μM acetoacetyl-CoA and 100 μM NADH) was added with the Preddator. To start the reaction, the plates were left to incubate for 35 min at RT before the absorbance at 340 nm was read on the EnVision plate reader (PerkinElmer). For the kinetic assay format and dose-response follow-up experiments, the same protocol was adopted, except that the absorbance at 340 nm was monitored constantly for 45 min from immediately after the reaction was started.

[2] = test system: HEK293 cells overexpressing 17β-HSD10; assay: LDH cytotoxicity assay; type: cell-based, human; details: 50 μM compound, 24 h, n = 3 ± SD
Method: Cell cytotoxicity was assessed via the measurement of LDH leakage into the culture medium using a commercially available kit from Pierce (Thermo Scientific cat no. 88953). This was carried out in accordance with the kit guidelines, with the activity of LDH being calculated from the change in absorbance at […]. Human embryonic kidney (HEK293) cells overexpressing 17β-HSD10 were cultured in phenol-red free media (10% FBS, 1 mM sodium pyruvate, 100 units penicillin, 0.1 mg mL^–1 streptomycin, and 2 mM L-glutamine) and seeded at a density of 10,000 cells per well (100 μL, 96-well plates). […] Treated cells were then incubated at 37 °C and CO2 (5%) for 24 h before the LDH assay was performed as per the manufacturer’s instructions. Spontaneous control (water) and maximum control (lysis buffer) were used in accordance with the kit guide. Absorbance was measured at 490 and 680 nm using the SpectraMaxM2e spectrophotometer. The measured LDH activity was used to calculate %cytotoxicity using the following equation (eq ): %cytotoxicity=(compoundtreatedLDHactivity−spontaneousLDHactivity)/(maximumLDHactivity−spontaneousLDHactivity)×100 1

[3] = test system: HEK293 cells overexpressing 17β-HSD10; assay: Alamar Blue cell viability assay; type: cell-based, human; details: 50 μM compound, 24 h, n = 3 ± SD
Method: (§1) Cell viability was assessed via fluorescence change using the commercially available Alamar Blue from ThermoFisher. HEK293 cells overexpressing 17β-HSD10 were cultured in phenol-red free media (10% FBS, 1 mM sodium pyruvate, 100 units penicillin, 0.1 mg mL^–1 streptomycin, and 2 mM L-glutamine) and seeded at a density of 10,000 cells per well (100 μL, 96-well plates). […] Treated cells were then incubated at 37 °C and CO2 (5%) for 24 h before the assay was performed as per the manufacturer’s instructions. Fluorescence was measured at 530 nm excitation and 590 nm emission using the SpectraMaxM2e spectrophotometer.

17β-HSD10 [4] = target: T1, 17β-HSD10; assay: (−)-CHANA fluorescence assay of cellular 17β-HSD10 activity; type: cell-based; details: read-out: cellular 17β-HSD10 activity mean pEC50 (converted)
Method: (−)–CHANA ((−)-cyclohexenyl amino naphthalene alcohol) is a fluorogenic probe that can be used to detect 17β-HSD10 activity in living cells. HEK293 17β-HSD10 cells were seeded at a density of 10,000 cells per well (100 μL, 96-well black plates) in phenol-red free media (10% FBS, 1 mM sodium pyruvate, 100 units penicillin, 0.1 mg mL^–1 streptomycin, and 2 mM L-glutamine). […] The fluorogenic probe (−)–CHANA was then added to each well to give a final assay concentration of 20 μM. Fluorescence was immediately measured using the FLUOstar Optima microplate reader (excitation = 380 nm, emission = 520 nm, orbital averaging = 3 mm), and the initial reaction was monitored for 3–4 h. EC50 was calculated from the control-subtracted triplicates using nonlinear regression (four parameters) of GraphPad Prism 5 software. The Final EC50 and SEM values were obtained as a mean of at least three independent measurements.

17β-HSD10 [5] = target: T1, 17β-HSD10; assay: Acetoacetyl-CoA and NADH enzyme kinetics (mode of inhibition); type: biochemical; details: for mode of inhibition with respect to acetoacetyl-CoA (AcAc): AcAc diluted from 1000 μM, 100 μM NADH; for mode of inhibition with respect to NADH: AcAc in excess at 800 μM, NADH diluted from 150 μM
Method: To determine the mode of inhibition, a matrix titration was used to calculate the kinetic parameters for acetoacetyl-CoA and NADH and the effect of 17β-HSD10 concentration upon reaction rate. Previously determined conditions as described in Aitken et al. were used. Data collected from the experiment were analyzed by plotting reaction progress curves to calculate the initial velocities, Vmax, and Km values using the Michaelis–Menten equation (XLFit, ID Business Solutions). Hanes Woolf plots were used to determine the mechanism of inhibition. Two compounds, ESC1002033 and ESC1002082, representative of the two unique clusters, were investigated for their mechanism of action against the substrates, NADH (Supplementary C, Figure S2) and AcetoAcetyl-CoA (AcAc) (Supplementary C, Figure S3). Both ESC1002033 and ESC1002082 inhibitors were tested as a 12-point serial dilution series with a maximal concentration of 2.5 μM. […] When investigating the effect of AcAc, it was diluted from 1000 μM with an excess of 100 μM NADH. Both inhibitors appear to have a similar mechanism of action. For NADH, with increasing concentration of the inhibitor, there is a decrease in Vmax (Figure SC1B) with no change in Km (Figure SC1C), which is characteristic of non-competitive (mixed) inhibition. This is also reflected by the convergence of the data to the left of the y axis on the Lineweaver–Burke plot (Figure SC1D). In contrast, with AcAc present, there was an increase in Kmapp with increasing inhibitor concentrations (Figure SC2C), which is characteristic of competitive inhibition. […] However, the data in Figure SC2D have been fitted for substrate inhibition (Y = V max × X/(Km + X × (1 + X/K i))), and the diagnostic Lineweaver–Burke plot also supports the conclusion that inhibition is competitive with AcAc (Figure SC2D).

[6] = Mouse hepatocyte metabolic stability; type: in vitro ADME; design: k (elimination constant): unit not given here; details: mouse hepatocytes; for Heps category: metabolism category; for Cl (clearance): limits of quantitation 0.5 and 50; for half-life: read-out: T1/2 (half-life)
Method: (§2) Hepatocyte isolation, hepatocyte incubations for metabolic stability, plasma protein binding (PPB) experiments, and LC/MS sample analysis were carried out as previously described in Brandon et al. and MacLeod et al.
XLfit (IDBS, UK) was used to calculate the exponential decay and the rate constant (k) from the ratio of the peak area of the test compound to the internal standard at each time point. […] Verapamil, 7-ethoxycoumarin, 7-hydroxycoumarin, and phthalazine were used as positive controls to confirm acceptable assay performance. […] Values were transferred to RStudio v1.3.1093 (Posit, Boston, MA, USA) for generation of scatter plots and heatmaps using the ggplot2 package (Wickham 2016).

[7] = Alamar Blue cell viability assay; type: cell-based, human; details: human, HEK293 cells overexpressing 17β-HSD10, 50 μM compound, n = 3 ± SD, read-out: Alamar Blue % viability (50 μM dose)
Method: as §1

[8] = Mouse plasma protein binding; type: in vitro ADME; details: read-out: mouse PPB (% free)
Method: as §2

[9] = Table 3, chemically modified singleton hit compound series, read-out: 17β-HSD10 pIC50 (converted)
[10] = Table 4, 17β-HSD10 overexpressing HEK293 cells, CHANA fluorescence assay
[11] = Table 5, read-out: mean 17β-HSD10 pIC50 (converted)
[12] = Table 5, HEK293 17β-HSD10 cells, CHANA assay
[13] = Table 2, chemically modified cluster hit compounds, read-out: 17β-HSD10 pIC50 (converted)

SMILES | IC50 (17β-HSD10 [1]; [9]) [nM] | LDH % toxicity (50 μM dose) [2] [%] | Alamar Blue % viability (50 μM dose) [3] [%] | EC50 (17β-HSD10 [4]; [10]) [nM] | k (elimination constant) [6] | Heps category [6] | Cl (clearance) [6] [mL/min/g liver] | half-life [6] [min] | IC50 (17β-HSD10 [1]; [11]) [nM] | viability at 24 h, 50 μM [7] [%] | EC50 (17β-HSD10 [4]; [12]) [nM] | further results
COc1cccc(-c2ccccc2C2CCCN2C(=O)c2sccc2C)c1 (stereo not shown) [ESC1002421] | 186 | 5.16 ± 0.01 | 102.63 ± 1.32 | 671 | – | – | – | – | – | – | – | –
COc1ccc(-c2ccccc2C2CCCN2C(=O)c2sccc2C)cn1 (stereo not shown) [ESC1002082] | – | – | – | – | – | – | – | – | – | – | – | LipE (17β-HSD10 [1]): 1.45; LipE (17β-HSD10 [1]; Table 1, lipophilic efficiency): 1.45; mode of inhibition with respect to acetoacetyl-CoA (AcAc) (17β-HSD10 [5]): competitively; mode of inhibition with respect to NADH (17β-HSD10 [5]): non-competitively
O=C(c1sccc1Cl)N1CCCC1c1ccccc1-c1cccc(O)c1 (stereo not shown) [ESC1002755] | 20 | 5.47 ± 0.04 | – | 28 | 0.22 | high | >50 | 3.1 | 18.6 | 85.3 ± 2.01 | 28 | fold improvement in activity/potency over hit ESC1002082 (17β-HSD10 [1]; relative to ESC1002082): 40 fold
CC(C)CN(C(=O)c1c(F)cccc1F)c1cccc(N(C)Cc2c[nH]cn2)c1 [ESC1002456] | – | 4.78 ± 0.01 | – | 141 | 0.018 | high | 8.6 | 38.5 | 138 | 79.2 ± 1.21 | 141 | fraction unbound [8]: 0.089; IC50 (17β-HSD10 [1]; [13]): 138 nM
Cc1ncc(CN(C)c2cccc(N(CC(C)C)C(=O)c3ccccc3F)c2)[nH]1 [ESC1002203] | – | 6.64 ± 0.03 | 82.98 ± 1.25 | 2460 | – | – | – | – | – | – | – | fold less potent than ESC1002033 (17β-HSD10 [1]; relative to ESC1002033): approximately 3 fold
Cc1ccsc1C(=O)N(CC(C)C)c1cccc(N(C)Cc2c[nH]cn2)c1 [ESC1002597] | – | 4.98 ± 0.04 | 78.78 ± 1.72 | 511 | 0.02 | Mod | 7.2 | – | – | – | 511 | T1/2 (half-life) [6]: 46.2 min; mean 17β-HSD10 pIC50 (17β-HSD10 [1]; Table 5): 6.4
COc1ccc(-c2ccccc2[C@H]2CCCN2C(=O)c2sccc2C)cn1 [ESC1002162] | – | 6.84 ± 0.02 | 78.79 ± 0.91 | 1130 | – | – | – | – | – | – | – | 17β-HSD10 pIC50 (17β-HSD10 [1]; Supplementary B, Table S1 and text, enantiomers): 6.31
O=C(c1sccc1Cl)N1CCCC1c1ccccc1-c1ccc(F)c(O)c1 (stereo not shown) [ESC1002838] | 51.3 | 5.58 ± 0.03 | 94.28 ± 1.31 | 232 | – | – | – | – | – | – | – | –
COc1cccc(-c2ccccc2C2CCCN2C(=O)c2[nH]ncc2Cl)c1 (stereo not shown) [ESC1002757] | 115 | 5.03 ± 0.02 | – | 266 | 0.13 | high | >50 | 5.3 | 105 | 89.52 ± 0.84 | 266 | LipE (17β-HSD10 [1]): 2.76
CC(C)CN(C(=O)c1ccccc1F)c1cccc(N(C)Cc2cnc[nH]2)c1 [ESC1002033] | – | – | – | – | 0.013 | mod | 6.2 | 53.8 | 200 | – | – | IC50 (17β-HSD10 [1]; [13]): 200 nM; mode of inhibition with respect to acetoacetyl-CoA (AcAc) (17β-HSD10 [5]): competitively; mode of inhibition with respect to NADH (17β-HSD10 [5]): non-competitively
